The values that follow come from patent publication US12071431B2, “Pyridin-sulfonamide compounds for the treatment of conditions related to interleukin 1 beta” (ALLINKY BIOPHARMA, priority 2018, dated 2024).

The subject of series [1] is human primary macrophages. Nature of the series: Cell viability assessment (CellTiter-Glo) in the macrophage assay plates. It counts as cell-based. Also on record: concentration or dose not given beside the values. To be noted: CellTiter-Glo luminescent assay. Here is the method: 2×10^5 PBMCs at a total volume of 200 μL/well were plated into a 96-well plate and incubated for 4 hrs at 37° C. in a CO2 incubator to allow the monocytes to settle, leaving the lymphocytes in suspension. Following incubation, 100 μL were aspirated out of each well to ensure removal of the lymphocyte population. The monocytes were differentiated to macrophages by addition of 200 ng/mL of recombinant human GM-CSF (4 mg/mL stock) and incubated at 37° C./5% CO2 for 6 days. The medium was changed every two days by removing half the volume of medium in the well and re-supplementing with fresh RPMI complete medium and recombinant human GM-CSF. Following differentiation, the cells were treated in duplicates with a compound according to the invention in a total volume of 50 μL, maintaining a final DMSO percentile of 0.5%. The plate was transferred to an incubator maintained at 37° C./5% CO2 for 2 hours. The cells were stimulated with 100 ng/mL of LPS (4×) (1 mg/mL stock) in a total volume of 50 μL. The plate was transferred to an incubator maintained at 37° C./5% CO2 for 16 hours. 100 μl/well volume of CellTiter-Glo® luminescent reagent was added to the assay plates and incubated at room temperature for 30 mins on a plate shaker. Following incubation, the luminescent signal of each well was determined using a microplate reader (Perkin Elmer ENVISION 2104). Cytotoxicity of the test compounds was determined utilizing the following formula: % Cytotoxicity=100−(100*(Average Test Compound Counts−Average Negative Control Counts)/(Average Positive Control Counts−Average Negative Control Counts)) All of the “Counts” stated in this formula are derived from “luminescent signal” determined as described for the cytokine viability assessment.
Background: Cellular ATP, detected with luciferase, serves as a proxy for viable cell number.

A further series has as its system IL-1β. Nature of the series: In vitro inhibition of IL-1β in human primary macrophages challenged with LPS (ELISA). It counts as cell-based. The note with it: Primary macrophage, 2 hours compound pre-treatment, 100 ng/mL LPS, 16 hours, read-out: IC50 (IL-Iβ inhibition). Here is the method:
Example 12—In Vitro Inhibition of IL-1β in Human Primary Macrophages Challenged with LPS
5 mL of RPMI media without serum (1:1) was added to a sample of 5 mL of human whole blood in EDTA or sodium citrate and mixed well by inversion. 3 mL of Histopaque-1077 was added to a 15 mL conical centrifuge tube and brought to room temperature. Using a transfer pipette, 10 mL of the blood-RPMI mixture was carefully layered onto the Histopaque-1077 and was centrifuged at 400×g for exactly 30 minutes at room temperature.
After centrifugation, a pasteur pipette was used to aspirate the upper layer to within 0.5 cm of the opaque interface containing the mononuclear cells. The upper layer was discarded. With a Pasteur pipette, the opaque interface was carefully transferred to a clean conical centrifuge tube. 5 mL RPMI was added to the tube and mixed by inversion, followed by centrifugation at 250×g for exactly 10 minutes. The supernatant was aspirated and discarded.
The leukocyte pellet was re-suspended with 5 mL RPMI and mixed gently with a Pasteur pipette, followed by centrifugation at 250×g for exactly 10 minutes. The pellet was washed 3× with PBS and re-suspended in RPMI medium.
2×10^5 PBMCs at a total volume of 200 μL/well were plated into a 96-well plate and incubated for 4 hrs at 37° C. in a CO2 incubator to allow the monocytes to settle, leaving the lymphocytes in suspension. Following incubation, 100 μL were aspirated out of each well to ensure removal of the lymphocyte population.
The monocytes were differentiated to macrophages by addition of 200 ng/mL of recombinant human GM-CSF (4 mg/mL stock) and incubated at 37° C./5% CO2 for 6 days. The medium was changed every two days by removing half the volume of medium in the well and re-supplementing with fresh RPMI complete medium and recombinant human GM-CSF.
Following differentiation, the cells were treated in duplicates with a compound according to the invention in a total volume of 50 μL, maintaining a final DMSO percentile of 0.5%. The plate was transferred to an incubator maintained at 37° C./5% CO2 for 2 hours. The cells were stimulated with 100 ng/mL of LPS (4×) (1 mg/mL stock) in a total volume of 50 μL.
The plate was transferred to an incubator maintained at 37° C./5% CO2 for 16 hours.
• 1. Each well from a pre-coated ELISA plate was aspirated and washed with wash buffer (0.05% Tween 20 in PBS; pH 7.2-7.4) by filling each well with wash buffer (300 μL). The process was repeated two times for a total of three washes. The liquid was removed completely at each step. After the last wash, any remaining wash buffer was removed. • 2. Plates were blocked by adding 300 μL of block buffer (1% BSA in PBS) to each well and incubated at room temperature for 1 hour. • 3. The aspiration/wash as in step 1 was repeated. • 4. 100 μL of sample or standard prepared in reagent diluent (0.1% BSA, 0.05% Tween 20 in PBS pH7.2-7.4) was added. The wells were covered with an adhesive strip and incubated for 2 hours at room temperature. • 5. The aspiration/wash as in step 1 was repeated. • 6. 100 μL of detection antibody, diluted in reagent diluent, was added to each well. The wells were covered with a new adhesive strip and incubated for 2 hours at room temperature. • 7. The aspiration/wash as in step 1 was repeated. • 8. 100 μL of the working dilution (1:200 from the stock) and streptavidin-HRP was added to each well. The plate was covered and incubated for 20 minutes at room temperature. • 9. 100 μL of substrate solution (1:1 mixture of H2O2 and tetramethylbenzidine) was added to each well and incubated for 20 minutes at room temperature. • 10.50 μL of stop solution (2N H2SO4) was added to each well. The plate was tapped gently to ensure thorough mixing. • 11. The optical density of each well was determined immediately using a microplate reader (Spectramax Plus) set to 450 nm. Cytokine Viability Assessment […]
On the technique in general: In an ELISA, binding on a coated surface is turned into a signal by an enzyme label.

Series [2] concerns Non-Alcoholic Steatohepatitis (NASH) in male C57BL/6 mice. Nature of the series: Treatment of non-alcoholic steatohepatitis (NASH) in male C57BL/6 mice (streptozotocin + high-fat diet). It counts as in vivo. To be noted: for hepatomegaly and liver to body weight ratio: 28 days of treatment, FIG. 3. Here is the method: Example 15: Effect of Compound 5 and 7 in the Treatment of Non-Alcoholic Steatohepatitis (NASH) in Male C57BL/6 Mice
Timed pregnant mice (n=30) were selected for the study. The delivered pups were subcutaneously injected on the post-natal day 2 (PND-2) with 200 μg of Streptozotocin and were allowed to remain with the mother until they reached the weanling age. After weanling, the male pups were selected and fed with 60% kcal fat diet (Research Diet-D12492) for the next 2 weeks. All the animals were observed twice daily for clinical signs.
Mice were dosed with vehicle, test compounds and reference compound (elafibranor) twice daily morning (9.00 AM) and evening before the start of dark cycle (6:00 PM) from day 0 to 28.
Animal body weight measurements were made daily for the complete duration of the experiment.
Animals were dosed for 28 days (from week 6 to 10) with the test and reference compounds.
Blood glucose was estimated before the treatment start and on the termination day 28. Serum ALT and AST levels were measured from the plasma before the treatment start and on day 28.
Histopathology analysis including H&E staining, Masson's trichrome staining and Oil-Red-O (ORO) staining was performed for the liver tissues.
All the H&E stained tissue sections were examined by light microscopy. As per the below grading system (Kleiner et al., 2005) in 200× objective lens, NAFLD scoring was done for steatosis, lobular inflammation and hepatic ballooning.
All the Masson's trichrome stained tissue sections were examined by light microscopy in 100× objective lens. Randomly selected five fields (approx 684.85 μm×917.11 m per field) from each liver were subjected to collagen proportion area measurement by using Image Pro Premier 9.1 software. The percentage of collagen proportion area was calculated by dividing collagen tissue area by total tissue area.
All the Oil-Red-O stained tissue sections were examined by light microscopy in 100× objective lens. Randomly selected five fields (approximately 688.33 μm×922.45 μm per field) from each liver were subjected to measure stained area by using Image Pro Premier 9.1 software. The percentage of stained area was calculated by dividing lipid stained tissue area by total tissue area.

Another series deals with Bleomycin-induced IPF. Nature of the series: Treatment of bleomycin-induced IPF in mice. The class given is in vivo. From the text:
Example 16: Effect of Compound 7 in the Treatment of Bleomycin-Induced IPF Timed pregnant mice (n=30) were selected for the study. The delivered pups were subcutaneously injected on the post-natal day 2 (PND-2) with 1.5 U/kg of Bleomycin (intra-tracheal) and were allowed to remain with the mother until they reached the weanling age. After weanling, the male pups were selected and fed with 60% kcal fat diet (Research Diet-D12492) for the next week. All the animals were observed twice daily for clinical signs. Mice were orally dosed with vehicle, test compounds and reference compound (Pirfenidone) twice daily morning (9.00 AM) and evening before the start of dark cycle (6:00 PM) from day 0 to 14. Animal body weight measurements were made daily for the complete duration of the experiment. Animals were dosed for 14 days with the test and reference compounds. Lung hydroxyproline level was estimated before the treatment start and on the termination day 14. Total cell count and differential leukocyte count in BALF were measured before the treatment start and on […]. Histopathology analysis in the form of H&E Ashcroft score was performed for the lung tissues. All the H&E stained tissue sections were examined by light microscopy. As per the below grading system (Kleiner et al., 2005) in 200× objective lens, IPF scoring was carried out. Collagen Proportion Area (% CPA) Measurement: Masson's Trichrome Staining All the Masson's trichrome stained tissue sections were examined by light microscopy in 100× objective lens. Randomly selected five fields (approx 684.85 μm×917.11m per field) from each lung were subjected to collagen proportion area measurement by using Image Pro Premier 9.1 software. The percentage of collagen proportion area was calculated by dividing collagen tissue area by total tissue area.

Setting [3] is: 3 mg/kg dose, twice daily, 28 days, H&E NAFLD scoring.

Consider `CN(C)S(=O)(=O)c1cnc(N2CCC(Oc3ccc(C(N)=O)nc3)CC2)c(Oc2ccc3c(c2)CCO3)c1` [Compound 12], for which the Cell viability in series [1] is recorded as 100%. Further, in the series on IL-1β, the IC50 is 2.3 µM.
In the case of `CN(C)S(=O)(=O)c1cnc(N2CCC(Oc3ccc(Cl)cc3)CC2)c(Oc2ccc3c(c2)CCO3)c1` [Compound 5], in series [2] (3 mg/kg dose, twice daily, 28 days, FIG. 1), the “NAFLD activity score (NAS)” value is reported as “significant reduced NAS score than disease controls”. In series [2] (setting [3]), the hepatic ballooning entry is “trend towards decreased”, the “lobular inflammation in the liver” value is on record as “significantly reduced” and the “steatosis in the liver” value is on record as “trend towards decreased”. In series [2], the “hepatomegaly and liver to body weight ratio” value is “did not show any hepatomegaly and increase in liver to body weight ratio”. Also, the “Serum AST levels” value in series [2] (after 28 days of treatment, FIG. 2) is reported as “significantly reduced”. Moreover, the Cell viability in series [1] came to 100%. In addition, in the series with IL-1β, the IC50 was determined as 0.028 µM.
`CN(C)S(=O)(=O)c1cnc(N2CCC(Oc3ccc(Cl)cc3)CC2)c(Nc2ccc3oc(CO)cc3c2)c1` [Compound 6]: in series [1], the Cell viability is 100%. Also, the IC50 in the series with IL-1β was 0.013 µM.
The matching figures for `CCOc1ccc(Oc2cc(S(C)(=O)=O)cnc2N2CCC(Oc3ccc(Cl)cc3)CC2)cc1` [Compound 11]: 100% and 0.753 µM.
The matching figures for `CCOc1ccc(Oc2cc(S(=O)(=O)N(C)C)cnc2N2CCC(Oc3ccc(C(N)=O)nc3)CC2)cc1` [Compound 8]: 100% and 0.337 µM.
The matching figures for `CN(C)S(=O)(=O)c1cnc(N2CCC(Oc3ccc(Cl)cc3)CC2)c(-c2ccc3c(c2)CCO3)c1` [Compound 1]: 100% and 0.115 µM.
In turn, `CN(C)S(=O)(=O)c1cnc(N2CCC(Oc3ccc(Cl)cc3)CC2)c(Nc2ccc3c(c2)CCO3)c1` [Compound 2] had a Cell viability in series [1] of 100%. Moreover, in the series with IL-1β, the IC50 worked out at 0.029 µM.
As to `CN(C)S(=O)(=O)c1cnc(N2CCC(Oc3ccc(Cl)cc3)CC2)c(Nc2ccc3c(c2)OCO3)c1` [Compound 3], the Cell viability in series [1] came to 100%. The IC50 with IL-1β came out at 0.121 µM.
The matching figures for `CCCOc1ccc(Nc2cc(S(=O)(=O)N(C)C)cnc2N2CCN(Cc3ccc(Cl)cc3)CC2)cc1` [Compound 4]: 100% and 0.3 µM.
Take `CN(C)S(=O)(=O)c1cnc(N2CCC(Oc3ccc(C(N)=O)nc3)CC2)c(Oc2ccc(OC(F)(F)F)cc2)c1` [Compound 9]: the Cell viability in series [1] came out at 100%. Besides, the IC50 in the series on IL-1β was determined as 0.531 µM.
The matching figures for `Cc1ccc(Oc2cc(S(=O)(=O)N(C)C)cnc2N2CCC(Oc3ccc(C(N)=O)nc3)CC2)cc1` [Compound 10]: 100% and 0.41 µM.
Regarding `CSc1ccc(C(=O)/C=C/c2cc(C)c(OC(C)(C)C(=O)O)c(C)c2)cc1` [Elafibranor, reference compound], in series [2], the “hepatomegaly and liver to body weight ratio” value is “hepatomegaly and increase in liver to body weight ratio”.
For the compound `Cc1ccc(=O)n(-c2ccccc2)c1` [Pirfenidone, reference compound], in the series with Bleomycin-induced IPF (compared with Bleomycin control, Compound 7 p>0.05, Pirfenidone p<0.05, FIGS. 5A and 5B), the BALF macrophage counts result is “reduced”. Further, the “% CPA (Collagen Proportion Area)” value in the series on Bleomycin-induced IPF (lung, Masson's trichrome, in comparison with Bleomycin control, p<0.05, FIG. 6B) was “significant reduction”. The “fibrosis score (H&E Ashcroft Score)” value in the series on Bleomycin-induced IPF (lung, in comparison with Bleomycin control, p<0.05, FIG. 6A) is “significant reduction”.

What is called IC50 is the point on the concentration scale where inhibition reaches its midpoint.
